Test results: patent US7727980B2, “Tricyclic androgen receptor modulator compounds and methods” (priority 2001, dated 2010)
Read-outs that look alike come from different tables or passages of the source.

How the values were obtained:
human AR [1] = molecular target: T1, human AR (Homo sapiens, UniProt P10275); assay: Co-transfection assay, AR agonist activity, CV-1 cells; assay type: cell-based; design: expressed in transfected cells; host or cells: CV-1 cells (African green monkey kidney fibroblasts), transient transfection with pRShAR; conditions: for AR Agonist CV-1 Cells Efficacy (%): percent maximal response relative to reference agonist DHT
T1 sequence (P10275 1-920): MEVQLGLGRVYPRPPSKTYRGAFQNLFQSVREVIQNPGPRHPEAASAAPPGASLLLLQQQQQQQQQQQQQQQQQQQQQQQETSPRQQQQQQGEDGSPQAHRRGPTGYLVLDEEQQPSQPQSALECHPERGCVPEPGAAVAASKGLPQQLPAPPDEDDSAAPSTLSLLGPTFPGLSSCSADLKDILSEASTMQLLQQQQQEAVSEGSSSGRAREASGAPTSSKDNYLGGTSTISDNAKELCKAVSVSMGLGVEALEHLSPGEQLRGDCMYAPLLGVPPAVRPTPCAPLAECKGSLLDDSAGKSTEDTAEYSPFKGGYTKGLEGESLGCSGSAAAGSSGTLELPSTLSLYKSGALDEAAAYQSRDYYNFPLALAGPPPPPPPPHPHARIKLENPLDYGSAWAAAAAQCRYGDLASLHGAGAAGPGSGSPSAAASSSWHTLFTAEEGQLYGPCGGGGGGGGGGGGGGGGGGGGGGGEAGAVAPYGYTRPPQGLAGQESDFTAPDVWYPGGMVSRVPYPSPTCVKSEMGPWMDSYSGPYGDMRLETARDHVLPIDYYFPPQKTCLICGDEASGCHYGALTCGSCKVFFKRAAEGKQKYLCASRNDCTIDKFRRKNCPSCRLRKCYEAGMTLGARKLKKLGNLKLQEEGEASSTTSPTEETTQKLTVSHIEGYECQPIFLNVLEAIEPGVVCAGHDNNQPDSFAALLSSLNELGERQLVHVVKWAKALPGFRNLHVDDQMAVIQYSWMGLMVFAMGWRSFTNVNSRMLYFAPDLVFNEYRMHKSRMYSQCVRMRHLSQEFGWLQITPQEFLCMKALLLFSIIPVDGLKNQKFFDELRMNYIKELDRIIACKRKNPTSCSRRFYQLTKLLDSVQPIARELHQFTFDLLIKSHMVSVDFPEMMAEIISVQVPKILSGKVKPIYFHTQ
Source text: (§1) The co-transfection assay provides a method for identifying functional agonists and partial agonists which mimic, or antagonists which inhibit, the effect of native hormones and quantifying their activity for responsive IR proteins. In this regard, the co-transfection assay mimics an in vivo system in the laboratory. Importantly, activity in the co-transfection assay correlates very well with known in vivo activity, such that the co-transfection assay functions as a qualitative and quantitative predictor of a tested compounds in vivo pharmacology. See, e.g., T. Berger et al. 41 J. Steroid Biochem. Molec.
(§2) In the co-transfection assay, a cloned cDNA for an IR (e.g., human PR, AR or GR) under the control of a constitutive promoter (e.g., the SV 40 promoter) is introduced by transfection (a procedure to induce cells to take up foreign genes) into a background cell substantially devoid of endogenous IRs. This introduced gene directs the recipient cells to make the IR protein of interest. A second gene is also introduced (co-transfected) into the same cells in conjunction with the IR gene. This second gene, comprising the cDNA for a reporter protein, such as firefly luciferase (LUC), controlled by an appropriate hormone responsive promoter containing a hormone response element (HRE). This reporter plasmid functions as a reporter for the transcription-modulating activity of the target IR. Thus, the reporter acts as a surrogate for the products (mRNA then protein) normally expressed by a gene under control of the target receptor and its native hormone.
(§3) The co-transfection assay can detect small molecule agonists or antagonists of target IRs. Exposing the transfected cells to an agonist ligand compound increases reporter activity in the transfected cells. This activity can be conveniently measured, e.g., by increasing luciferase production, which reflects compound-dependent, IR-mediated increases in reporter transcription. […] To detect antagonists, the co-transfection assay is carried out in the presence of a constant concentration of an agonist to the target IR (e.g., progesterone for PR) known to induce a defined reporter signal. Increasing concentrations of a suspected antagonist will decrease the reporter signal (e.g., luciferase production). The co-transfection assay is therefore useful to detect both agonists and antagonists of specific IRs. Furthermore, it determines not only whether a compound interacts with a particular IR, but whether this interaction mimics (agonizes) or blocks (antagonizes) the effects of the native regulatory molecules on target gene expression, as well as the specificity and strength of this interaction.
(§4) CV-1 cells (African green monkey kidney fibroblasts) were cultured in the presence of Dulbecco's Modified Eagle Medium (DMEM) supplemented with 10% charcoal resin-stripped fetal bovine serum then transferred to 96-well microtiter plates one day prior to transfection.
(§5) The reporter plasmid, MTV-LUC, contains the cDNA for firefly luciferase (LUC) under control of the mouse mammary tumor virus (MTV) long terminal repeat, a conditional promoter containing an androgen response element. See e.g., Berger et al. supra. In addition, pRS-β-Gal, coding for constitutive expression of E. coli β-galactosidase (β-Gal), was included as an internal control for evaluation of transfection efficiency and compound toxicity.
(§6) Six hours after transfection, media was removed and the cells were washed with phosphate-buffered saline (PBS). […] Three to four replicates were used for each sample. Transfections and subsequent procedures were performed on a Biomek 1000 automated laboratory work station.
(§7) After 40 hours, the cells were washed with PBS, lysed with a Triton X-100-based buffer and assayed for LUC and β-Gal activities using a luminometer or spectrophotometer, respectively. For each replicate, the normalized response (NR) was calculated as: LUC response/β-Gal rate • where β-Gal rate=β-Gal·1×10^−5/β-Gal incubation time.

human AR [2] = molecular target: T1, human AR; assay: AR whole cell competitive binding assay (3H-DHT), transfected COS-1 cells; design: expressed in transfected cells; transient transfection with pRShAR; conditions: COS-1 cells, 1 nM 3H-DHT, Cheng-Prusoff from IC50; read-out: AR Binding Ki
Protocol: AR Binding: For the whole cell binding assay, COS-1 cells in 96-well microtiter plates containing DMEM-10% FBS were transfected as described above with the following plasmid DNA: pRShAR (2 ng/well), pRS-β-Gal (50 ng/well) and pGEM (48 ng/well). Six hours after transfection, media was removed, the cells were washed with PBS and fresh media was added. The next day, the media was changed to DMEM-serum free to remove any endogenous ligand that might be complexed with the receptor in the cells.
Three replicates were used for each sample. […] The remaining media was removed, the cells were washed three times with PBS to remove unbound ligand and cells were lysed with a Triton X-100-based buffer.
For the saturation analyses, the difference between the total binding and the nonspecific binding, normalized by the β-Gal rate, was defined as specific binding. […] The Ki values were determined by application of the Cheng-Prusoff equation to the IC50 values, where: […]
After correcting for non-specific binding, IC50 values were determined. […] The IC50 value was determined graphically from a log-logit plot of the data. The Ki values were determined by application of the Cheng-Prusoff equation to the IC50 values, the labeled ligand concentration and the Kd of the labeled ligand.

human AR [3] = molecular target: T1, human AR; assay: Co-transfection assay, AR antagonist activity in presence of DHT, CV-1 cells; assay type: cell-based; design: expressed in transfected cells; host or cells: CV-1 cells (African green monkey kidney fibroblasts), transient transfection with pRShAR; conditions: for AR Antagonist CV-1 Cells Efficacy (%): percent maximal inhibition, DHT at its EC50 concentration
Source text: as §1, §2, §3, §4, §5, §6, §7

[4] = agonist potency or EC50, read-out: AR Agonist CV-1 Cells Potency
[5] = CV-1 cells, antagonist potency or IC50, DHT at its EC50 concentration, read-out: AR Antagonist CV-1 Cells Potency
[6] = AR Agonist CV-1 Cells Potency (nM), agonist potency or EC50
[7] = AR Antagonist CV-1 Cells Potency (nM), CV-1 cells, antagonist potency or IC50, DHT at its EC50 concentration

## 5,6-Dimethyl-7-(2,2,2-trifluoroethyl)-4-trifluoromethyl-7H-pyrrolo[3,2-f]quinolin-2(1H)-one [Compound 150]
Human AR [1]; [4]
  EC50: 2.1 nM
Human AR [1]
  AR Agonist CV-1 Cells Efficacy (%): 95%
Human AR [2]
  Ki: 0.004 µM
Human AR [3]; [5]
  IC50: > 10000 nM
Human AR [3]; CV-1 cells
  AR Antagonist CV-1 Cells Efficacy (%): na (na = not active (i.e. efficacy of <20 and potency of >10,000))

## 5-(2-Ethoxycarbonylethyl)-6-methyl-7-(2,2,2-trifluoroethyl)-4-trifluoromethyl-7H-pyrrolo[3,2-f]quinolin-2(1H)-one [Compound 162]
Human AR [1]; [4]
  EC50: 20 nM
Human AR [1]
  AR Agonist CV-1 Cells Efficacy (%): 71%
Human AR [2]
  Ki: 0.113 µM
Human AR [3]; [5]
  IC50: > 10000 nM
Human AR [3]; CV-1 cells
  AR Antagonist CV-1 Cells Efficacy (%): na (na = not active (i.e. efficacy of <20 and potency of >10,000))

## 5-(4-Fluorophenyl)-6-methyl-7-(2,2,2-trifluoroethyl)-4-trifluoromethyl-7H-pyrrolo[3,2-f]quinolin-2(1H)-one [Compound 161]
Human AR [1]; [4]
  EC50: 238 nM
Human AR [1]
  AR Agonist CV-1 Cells Efficacy (%): 27%
Human AR [2]
  Ki: 0.03 µM
Human AR [3]; [5]
  IC50: 10 nM
Human AR [3]; CV-1 cells
  AR Antagonist CV-1 Cells Efficacy (%): 66%

## 5-Allyl-6-methyl-4-trifluoromethyl-7H-pyrrolo[3,2-f]quinolin-2(1H)-one [Compound 114]
Human AR [1]; [4]
  EC50: > 10000 nM
Human AR [1]
  AR Agonist CV-1 Cells Efficacy (%): na (na = not active (i.e. efficacy of <20 and potency of >10,000))
Human AR [2]
  Ki: 0.081 µM
Human AR [3]; [5]
  IC50: 6.6 nM
Human AR [3]; CV-1 cells
  AR Antagonist CV-1 Cells Efficacy (%): 81%

## 5-Ethyl-6-propyl-7-(2,2,2-trifluoroethyl)-4-trifluoromethyl-7H-pyrrolo[3,2-f]quinolin-2(1H)-one [Compound 155]
Human AR [1]; [4]
  EC50: 9.4 nM
Human AR [1]
  AR Agonist CV-1 Cells Efficacy (%): 59%
Human AR [2]
  Ki: 0.0074 µM
Human AR [3]; [5]
  IC50: > 10000 nM
Human AR [3]; CV-1 cells
  AR Antagonist CV-1 Cells Efficacy (%): na (na = not active (i.e. efficacy of <20 and potency of >10,000))

## 6,7-Dihydro-8,8,10-trimethyl-4-(trifluoromethyl)-8H-pyrano[3,2-g]quinolin-2(1H)-one [Compound 206]
Human AR [1]; [4]
  EC50: > 10000 nM
Human AR [1]
  AR Agonist CV-1 Cells Efficacy (%): na (na = not active (i.e. efficacy of <20 and potency of >10,000))
Human AR [3]; [5]
  IC50: 175 nM
Human AR [3]; CV-1 cells
  AR Antagonist CV-1 Cells Efficacy (%): 90%

## 6,7-Dihydro-8,8-dimethyl-4-(trifluoromethyl)-8H-pyrano[3,2-g]quinolin-2(1H)-one [Compound 202]
Human AR [1]; [4]
  EC50: > 10000 nM
Human AR [1]
  AR Agonist CV-1 Cells Efficacy (%): na (na = not active (i.e. efficacy of <20 and potency of >10,000))
Human AR [3]; [5]
  IC50: 146 nM
Human AR [3]; CV-1 cells
  AR Antagonist CV-1 Cells Efficacy (%): 92%

## 6-Ethyl-5-methyl-7-(2,2,2-trifluoroethyl)-4-trifluoromethyl-7H-pyrrolo[3,2-f]quinolin-2(1H)-one [Compound 153]
Human AR [1]; [4]
  EC50: 7.6 nM
Human AR [1]
  AR Agonist CV-1 Cells Efficacy (%): 76%
Human AR [3]; [5]
  IC50: > 10000 nM
Human AR [3]; CV-1 cells
  AR Antagonist CV-1 Cells Efficacy (%): na (na = not active (i.e. efficacy of <20 and potency of >10,000))

## CC(C)C1c2c(ccc3[nH]c(=O)cc(C(F)(F)F)c23)N(CC(F)(F)F)C1C (racemic) [Compound 144, (±)-5,6-cis-Dihydro-5-isopropyl-6-methyl-7-(2,2,2-trifluoroethyl)-4-trifluoromethyl-7H-pyrrolo[3,2-f]quinolin-2(1H)-one]
Human AR [1]; [6]
  EC50: > 10000 nM
Human AR [1]
  AR Agonist CV-1 Cells Efficacy (%): na (na = not active (i.e. efficacy of <20 and potency of >10,000))
Human AR [3]; [7]
  IC50: 23 nM
Human AR [3]; CV-1 cells
  AR Antagonist CV-1 Cells Efficacy (%): 53%

## CCC1CCOc2cc3c(cc21)c(C(F)(F)F)cc(=O)n3C (racemic) [Compound 220, (±)-6,7-Dihydro-6-ethyl-4-trifluoromethyl-1-methyl-8H-pyrano[3,2-g]quinolin-2(1H)-one]
Human AR [1]; [6]
  EC50: > 10000 nM
Human AR [1]
  AR Agonist CV-1 Cells Efficacy (%): na (na = not active (i.e. efficacy of <20 and potency of >10,000))
Human AR [3]; [7]
  IC50: 23 nM
Human AR [3]; CV-1 cells
  AR Antagonist CV-1 Cells Efficacy (%): 67%

## CCc1c(C)c2cc3[nH]c(=O)cc(C(F)(F)F)c3cc2n1CC(F)(F)F [Compound 163, 7-Ethyl-8-methyl-6-(2,2,2-trifluoroethyl)-4-trifluoromethyl-6H-pyrrolo[2,3-g]quinolin-2(1H)-one]
Human AR [1]; [6]
  EC50: > 10000 nM
Human AR [1]
  AR Agonist CV-1 Cells Efficacy (%): na (na = not active (i.e. efficacy of <20 and potency of >10,000))
Human AR [3]; [7]
  IC50: 8.2 nM
Human AR [3]; CV-1 cells
  AR Antagonist CV-1 Cells Efficacy (%): 37%

## CC1CC(C)(C)N(CC(F)(F)F)c2ccc3[nH]c(=O)ccc3c21 (centres unmarked) [Compound 182, 8-(2,2,2-Trifluoroethyl)-5,6,7,8-tetrahydro-5,7,7-trimethylpyrido[3,2-f]quinolin-2(1H)-one]
Human AR [1]
  AR Agonist CV-1 Cells Efficacy (%): na (na = not active (i.e. efficacy of <20 and potency of >10,000))
Human AR [3]
  IC50: 13 nM
Human AR [3]; CV-1 cells
  AR Antagonist CV-1 Cells Efficacy (%): 81%

## (−)-6,7-Dihydro-6-ethyl-4-trifluoromethyl-8H-pyrano[3,2-g]quinolin-2(1H)-one [Compound 217]
Human AR [1]; [4]
  EC50: > 10000 nM
Human AR [1]
  AR Agonist CV-1 Cells Efficacy (%): na (na = not active (i.e. efficacy of <20 and potency of >10,000))
Human AR [3]; [5]
  IC50: 64 nM
Human AR [3]; CV-1 cells
  AR Antagonist CV-1 Cells Efficacy (%): 85%
